The results in this text go back to patent publication US20220016079A1, “COMBINATION TREATMENT OF HIV INFECTIONS” (priority 2018, published 2022).

Bounds are passed on as bounds.

Data set [1] has as its system latent HIV-1 in rCD4+ cells co-cultured with CD8+ cells. In words: HIV-1 reactivation in ex vivo co-cultures of rCD4+ and CD8+ cells from an ART-treated HIV patient (HIV RNA in supernatant). The data set is classed as cell-based, human. On the procedure:
The efficacy of IAPa, ICI or IAPa/ICI combinations in reversing HIV-1 latency was tested in HIV-1 infected rCD4+ cells co-cultured for 48 h with CD8+ cells from the same donor.
Method: Blood from one HIV-1-infected patient under ART was collected (500 mL) and CD4+ and CD8+ cells isolated using beads coated with specific antibodies following manufacturer's instruction (MojoSort™ Human Cell Isolation Kits from Biolegend). The CD4+ T cells were re-infected with HIV-1 (JR-CSF) (1 μg of p24), incubated for 3 days to allow establishment of infection, and treated with ART ([…]) for 7 days to ensure presence of enough latent HIV CD4+ cells (rCD4+) in the culture. Upon ART removal, rCD4 were then isolated following manufacturer's instruction (EasySep™ Human Resting CD4+ T Cell Isolation Kit). The isolated rCD4 were mixed with autologous (from the same patient) uninfected CD8+ T cells at a 1:1 ratio (100,000 cells) and incubated in duplicate for 48 h with different IAPa ([…]) or ICI (10 μg/ml) in monotherapy, or the IAPa/ICI combinations. Amounts of virions released from cells were quantified at the indicated time points by quantifying HIV RNA levels (HIV RNA copies/mL) in supernatant of cell culture using one-step reverse transcriptase quantitative real-time PCR (ABI custom TaqMan Assays-by-Design) according to the manufacturer's instructions. Primers were 5-[…]-3 and 5-[…]-3, and MGB probe 5-FAM-[…]-Q-3, where FAM is 6-carboxyfluorescein.

The test system of data set [2] is latent HIV-1 in 2D10 cells. In words: HIV-1 reactivation in latent GFP-reporter 2D10 cells, Debio 1143 and other LRAs alone or in combination. The data set is classed as cell-based. As to conditions: single agents, 48 h. On the procedure:
We compared the efficacy of Debio-1143 at reversing HIV-1 latency with that of other LRAs. We then analyzed the cytotoxicity of Debio-1143 with that of the other LRAs on 2D10 cells. Drug titration was conducted.
Methods: HIV-1 latent GFP-reporter 2D10 cells (100,000 cells/100 μL) were treated in triplicate for 48 h with increasing concentrations of either only Debio-1143 or the LRAs (2000 nM or 20000 nM), or with Debio 1143 (2000 nM or 20000 nM) in combination with the LRAs at a single predetermined concentration (see Table 2). HIV reactivation was analyzed via GFP expression by flow cytometry.

The test system of data set [3] is HIV-infected resting CD4+ T cells (rCD4). In words: Lysis of HIV-infected resting CD4+ T cells (rCD4) by CD8+ T cells and NK cells (LDH activity). The data set is classed as cell-based, human. As to conditions: 0, 1 and 10 μM, mono- or co-cultures of rCD4, CD4+, 24 and 48 h. On the procedure:
It was investigated whether the Debio-1143-induced reversal of HIV-1 latency, by restoring HIV-1 protein production in rCD4, would permit viral peptide exposure with MHC on infected rCD4+ T cells and allow recognition and lysis by CD8+ T cells and/or NK cells.
Method: Human CD4+ T cells, CD8+ T cells and NK cells were isolated following manufacturer's instruction (beads coated with specific antibodies) from one blood donor (500 mL). Ninety percent of CD4+ T cells were infected with HIV-1 (JR-CSF) (1 μg of p24), incubated for 4 days to allow establishment of infection, and then treated with ART for 3 days. Suppression of replication was verified by p24 ELISA in supernatants. rCD4 were then isolated following manufacturer's instruction. Infected and ART-treated rCD4 were mixed with uninfected CD4+ T cells, CD8+ T cells and NK cells a 1:1 ratio (100,000 cells) for 24 and 48 in triplicate. Mono-culture of each cell populations were used as controls. DMSO or Debio-1143 (0, 1 and 10 μM) were added to mono- or co-cultures for 24 and 48 h. Cell killing was quantified by LDH activity.

The next data set concerns the target T1, BIRC2 (Homo sapiens, UniProt Q13490).
T1 construct: endogenous in cells; host or cells: 2D10, 293T and CD4+ T cells
In words: BIRC2 (cIAP1) degradation by Western blotting. The data set is classed as cell-based. On the procedure: It was investigated whether Debio-1143 reverses HIV-1 latency by acting on the NF-κB pathway. Canonical and non-canonical NF-κB signaling pathways play an important role in the reactivation of latent HIV-1, implicating its regulation as an important therapeutic strategy for latency reversal.
Method: 2D10 (A) or 293T (B) and CD4+ T cells (C) cells were treated with DMSO, Debio-1143 (1 μM) and TNFα (10 ng/ml) for the indicated times and analyzed by Western blotting for BIRC2 and IkBα protein expression using antibodies specifically detecting human BIRC2, human IkBα, or human CypA, such as commercially available (e.g. from R&D Systems, Cell Signaling, Santa Cruz Biotechnology, or other sources).
For orientation: In western blotting, separated proteins are transferred to a membrane and probed.

For the next data set, the system named is 2D10 cells. In words: Cytotoxicity by LDH assay in 2D10 cells. The data set is classed as cell-based. To be noted: 0 to 20 μM, 48 h. On the procedure:
Drug titration was conducted.
For analysis of cell viability, cells (100,000 cells/100 μL) were treated in triplicate for 48 h with increasing concentrations of Debio-1143 or other known LRAs (0 to 20 μM). Cellular cytotoxicity was analyzed by Lactate dehydrogenase (LDH) assay. LDH is an oxidoreductase enzyme that catalyzes the interconversion of pyruvate and lactate. Cells release LDH into the bloodstream after tissue damage or red blood cell hemolysis. Since LDH is a fairly stable enzyme, it has been widely used to evaluate the presence of damage and toxicity of tissue and cells. In this particular, LDH reduces NAD to NADH, which is specifically detected by colorimetric (490 nm) assay.

T1 sequence (Q13490 whole entry): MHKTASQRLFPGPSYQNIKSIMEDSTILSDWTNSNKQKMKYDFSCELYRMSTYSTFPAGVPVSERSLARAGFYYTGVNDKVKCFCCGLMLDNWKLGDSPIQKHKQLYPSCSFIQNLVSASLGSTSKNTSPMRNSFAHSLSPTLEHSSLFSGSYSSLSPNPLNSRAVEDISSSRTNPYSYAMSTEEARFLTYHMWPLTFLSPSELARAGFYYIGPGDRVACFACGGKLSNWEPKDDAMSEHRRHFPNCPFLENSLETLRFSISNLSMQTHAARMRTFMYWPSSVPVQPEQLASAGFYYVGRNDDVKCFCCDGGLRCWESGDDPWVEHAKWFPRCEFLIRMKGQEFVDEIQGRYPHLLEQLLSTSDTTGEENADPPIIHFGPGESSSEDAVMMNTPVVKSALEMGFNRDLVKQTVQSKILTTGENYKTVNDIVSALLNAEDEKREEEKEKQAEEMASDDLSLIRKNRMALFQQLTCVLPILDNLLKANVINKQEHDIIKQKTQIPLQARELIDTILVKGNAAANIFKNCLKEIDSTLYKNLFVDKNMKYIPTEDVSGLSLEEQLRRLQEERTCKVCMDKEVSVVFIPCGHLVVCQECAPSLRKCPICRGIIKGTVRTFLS

For `CN[C@@H](C)C(=O)N[C@H]1CN(C(=O)CC(C)C)CC[C@H]2CC[C@@H](C(=O)NC(c3ccccc3)c3ccccc3)N2C1=O` [Debio 1143, (5S,8S,10aR)-N-benzhydryl-5-((S)-2-(methylamino)propanamido)-3-(3-methylbutanoyl)-6-oxodecahydropyrrolo[1,2-a][1,5]diazocine-8-carboxamide], the “latency reversal class (HIV RNA copies/ml in supernatant)” value in data set [1] (IAPa 1 μM monotherapy (0.1% DMSO, no ICI), 48 h (Table 3)) was 3 (Subsequent classes were defined accordingly in steps of 500 RNA copies/ml); in data set [1] (IAPa 1 μM with Control IgG1, 48 h (Table 3)) it was 3 (Subsequent classes were defined accordingly in steps of 500 RNA copies/ml); in data set [1] (IAPa 1 μM with Control IgG2, 48 h (Table 3)), 3 (Subsequent classes were defined accordingly in steps of 500 RNA copies/ml). Moreover, in data set [2], the “HIV-1 latency reversal (GFP expression)” value was “reversed HIV-1 latency”. The “potency as LRA compared with other LRAs” value in data set [2] is recorded as “one of the most potent LRA”. For the same compound, the “cell killing (LDH activity)” value in data set [3] was “Low cell death was observed in all mono- and co-cultures except for the rCD4:CD8+ T cells co-culture”. Also, the “time of BIRC2 degradation” value on BIRC2 (1 μM, 2D10 and 293T cells) is under 15 min. For the same compound, the BIRC2 degradation result at BIRC2 (CD4+ T cells) is listed as “dose-dependent”. Also, the “cytotoxicity (LDH assay)” value with 2D10 cells is on record as “did not exhibit any cytotoxicity”.
